One data set has as its system Canis familiaris. Description: Hepatic blood flow in dog at 0.5 to 2 mg/kg. The format is ADME, organism-based, Canis lupus familiaris, Liver. More on the design: dose 0.5-2 mg/kg. The conditions noted are these: in vivo.
Another data set addresses Cytochrome P450 2C9 (Homo sapiens, UniProt P11712). In words: Inhibition of CYP2C9. The class given is ADME.
For data set [1], the system named is Calu-6. In words: Antitumor activity against human Calu6 cells xenografted in nude mouse assessed as tumor growth inhibition at 12.5 mg/kg bid. The format is functional. The note with it: read-out: TGI.
Data set [2] can be described thus: Clearance in rat hepatocytes assessed per million cells. The format is ADME, cell-based, Hepatocyte. The note with it: read-out: CLH.
Data set [3] in a line: Volume of distribution at steady state in dog at 2 mg/kg. The format is ADME, organism-based, Canis lupus familiaris. On the set-up: dose 2 mg/kg. The note with it: in vivo, read-out: Vdss.
For another data set, the system named is LoVo. In words: Antitumor activity against human LoVo cells xenografted in nude mouse assessed as tumor growth inhibition at 50 mg/kg bid for 22 days. The format is functional. The note with it: 528 h, read-out: TGI. Background: In xenograft studies the graft and the host belong to different species.
In data set [4] the test system is Mus musculus. Description: Inhibition of VEGFR2 phosphorylation in C6 cells xenografted in nude mouse lungs at 3 to 50 mg/kg bid after 10 hrs by Western blot analysis. The conditions noted are these: dose mg/kg 3-50. The format is functional.
Another data set has as its system C6. In words: Antitumor activity against rat C6 cells xenografted in nude mouse assessed as tumor growth inhibition at 12.5 to 50 mg/kg bid for 22 days. The format is functional. The conditions noted are these: dose mg/kg 12.5-50.
Data set [5] is described as follows: Volume of distribution at steady state in rat at 2 mg/kg. The class given is ADME, organism-based. More on the design: dose 2 mg/kg. The note with it: in vivo, read-out: Vdss.
Data set [6] can be described thus: Terminal half life in rat at 2 mg/kg, iv. The format is ADME, organism-based. On the set-up: dose 2 mg/kg, route intravenous. The note with it: in vivo, read-out: beta t1/2 (converted).
The nature of data set [7]: Oral bioavailability in rat at 2 to 5 mg/kg. The format is ADME, organism-based. The note with it: in vivo.
The nature of data set [8]: Clearance in rat at 2 mg/kg. The format is ADME, organism-based. More on the design: dose 2 mg/kg. The note with it: in vivo.
Data set [9] is described as follows: Half life in rat at 2 mg/kg, po. The class given is ADME, organism-based. More on the design: dose 2 mg/kg, route oral. The conditions noted are these: in vivo.
Data set [10] can be described thus: Fraction unbound in dog serum. The class given is ADME, cell-free, Canis lupus familiaris.
The nature of data set [11]: Clearance in dog at 2 mg/kg. The class given is ADME, organism-based, Canis lupus familiaris. On the set-up: dose 2 mg/kg. The conditions noted are these: in vivo.
Data set [12] is described as follows: Terminal half life in dog at 2 mg/kg, iv. The format is ADME, organism-based, Canis lupus familiaris. More on the design: dose 2 mg/kg, route intravenous. The note with it: in vivo, read-out: beta t1/2 (converted).
In data set [13] the target is Voltage-gated inwardly rectifying potassium channel KCNH2 (Homo sapiens, UniProt Q12809). Description: Inhibition of human ERG.
For the next data set, the system named is Rattus norvegicus. Description: Hepatic blood flow in rat at 0.5 to 2 mg/kg. The class given is ADME, organism-based, Liver. More on the design: dose 0.5-2 mg/kg. The note with it: in vivo.
The subject of data set [14] is Calu-6. Description: Antitumor activity against human Calu6 cells xenografted in nude mouse assessed as tumor growth inhibition at 50 mg/kg bid. The note with it: read-out: TGI. The class given is functional.
Data set [15] concerns Mus musculus. In words: Inhibition of PDGFRbeta phosphorylation in C6 cells xenografted in nude mouse lungs at 3 to 50 mg/kg bid after 10 hrs by Western blot analysis. The conditions noted are these: dose mg/kg 3-50. Background: Immunoblotting shows a protein as a band on a membrane.
A short description of data set [16]: Oral bioavailability in dog at 2 to 5 mg/kg. The conditions noted are these: in vivo. The class given is ADME, organism-based, Canis lupus familiaris.
Data set [17] is described as follows: Half life in dog at 2 mg/kg, po. The class given is ADME, organism-based, Canis lupus familiaris. More on the design: dose 2 mg/kg, route oral. The conditions noted are these: in vivo.
A short description of data set [18]: Fraction unbound in human serum. The class given is ADME, cell-free.
Data set [19] is described as follows: Volume of distribution at steady state in dog at 3 mg/kg, iv. The format is ADME, organism-based, Canis lupus familiaris. The conditions noted are these: in vivo, read-out: Vdss. More on the design: dose 3 mg/kg, route intravenous.
Data set [20] can be described thus: Clearance in dog at 3 mg/kg, iv. The class given is ADME, organism-based, Canis lupus familiaris. On the set-up: dose 3 mg/kg, route intravenous. The conditions noted are these: in vivo.
Data set [21] can be described thus: Oral bioavailability in dog at 10 mg/kg. The note with it: in vivo. The class given is ADME, organism-based, Canis lupus familiaris.
Data set [22] can be described thus: Terminal half life in dog at 3 mg/kg, iv. The note with it: in vivo, read-out: beta t1/2 (converted). More on the design: dose 3 mg/kg, route intravenous. The class given is ADME, organism-based, Canis lupus familiaris.
Data set [23] in a line: Half life in dog at 2.7 mg/kg, po. The note with it: in vivo. More on the design: dose 2.7 mg/kg, route oral. The format is ADME, organism-based, Canis lupus familiaris.
The nature of data set [24]: Half life in dog at 3 mg/kg, po. The format is ADME, organism-based, Canis lupus familiaris. On the set-up: dose 3 mg/kg, route oral. The note with it: in vivo.
Data set [25] is described as follows: Oral bioavailability in rat at 2.7 mg/kg. The class given is ADME, organism-based. The note with it: in vivo.
Data set [26] can be described thus: Clearance in dog at 10 mg/kg, po. The format is ADME, organism-based, Canis lupus familiaris. More on the design: dose 10 mg/kg, route oral. The note with it: in vivo.

Here are results for 2 compounds from ChEMBL document CHEMBL1938371, “Discovery of AZD2932, a new Quinazoline Ether Inhibitor with high affinity for VEGFR-2 and PDGFR tyrosine kinases” (Bioorg Med Chem Lett, 2012).

As usually defined, the IC50 is the midpoint of a concentration-inhibition curve. Lower therefore signals greater potency in that assay. One may read the TGI as the reduction of tumour growth relative to the control group. As usually defined, the bioavailability is dose-corrected exposure relative to a reference, in per cent. The clearance is the volume of plasma or blood freed of the substance per unit of time. Higher therefore signals efficient removal. The fraction unbound is the share of the substance not bound to proteins or other matrix. A higher fraction unbound goes with much free substance. By CL/F is commonly meant the apparent clearance, not corrected for the fraction that reaches the circulation.

Structures are written as SMILES.

Chain of Voltage-gated inwardly rectifying potassium channel KCNH2 (Q12809 whole entry): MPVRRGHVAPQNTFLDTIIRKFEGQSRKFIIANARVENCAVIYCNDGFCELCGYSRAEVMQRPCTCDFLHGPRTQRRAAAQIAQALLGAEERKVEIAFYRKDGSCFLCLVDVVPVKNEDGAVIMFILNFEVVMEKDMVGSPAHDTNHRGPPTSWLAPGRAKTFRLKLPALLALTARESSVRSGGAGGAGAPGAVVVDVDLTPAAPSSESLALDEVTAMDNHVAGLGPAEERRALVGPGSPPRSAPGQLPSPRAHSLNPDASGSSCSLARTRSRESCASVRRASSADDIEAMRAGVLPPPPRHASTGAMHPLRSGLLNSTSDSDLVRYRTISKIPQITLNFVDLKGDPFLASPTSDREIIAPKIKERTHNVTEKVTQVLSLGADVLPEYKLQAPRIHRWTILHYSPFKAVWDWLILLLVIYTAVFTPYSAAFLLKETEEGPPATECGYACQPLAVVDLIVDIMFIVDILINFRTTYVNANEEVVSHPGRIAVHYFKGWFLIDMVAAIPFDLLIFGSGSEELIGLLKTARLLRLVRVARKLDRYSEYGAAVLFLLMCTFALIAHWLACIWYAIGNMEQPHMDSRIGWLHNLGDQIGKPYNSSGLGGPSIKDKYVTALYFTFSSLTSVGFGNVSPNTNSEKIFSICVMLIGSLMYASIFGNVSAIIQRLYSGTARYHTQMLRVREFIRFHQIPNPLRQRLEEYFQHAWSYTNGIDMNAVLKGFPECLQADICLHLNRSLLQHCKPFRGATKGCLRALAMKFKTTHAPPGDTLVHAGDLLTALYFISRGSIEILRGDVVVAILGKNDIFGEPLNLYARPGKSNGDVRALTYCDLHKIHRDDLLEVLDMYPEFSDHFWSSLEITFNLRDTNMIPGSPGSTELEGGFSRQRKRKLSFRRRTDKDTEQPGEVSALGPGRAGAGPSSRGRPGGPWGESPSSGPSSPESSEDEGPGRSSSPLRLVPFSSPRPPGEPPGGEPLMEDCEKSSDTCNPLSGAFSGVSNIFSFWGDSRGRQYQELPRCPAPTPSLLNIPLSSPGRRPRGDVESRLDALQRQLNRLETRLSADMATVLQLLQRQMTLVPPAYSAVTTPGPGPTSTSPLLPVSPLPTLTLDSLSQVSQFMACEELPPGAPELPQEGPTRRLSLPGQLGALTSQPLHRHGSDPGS
Chain of Cytochrome P450 2C9 (P11712 whole entry): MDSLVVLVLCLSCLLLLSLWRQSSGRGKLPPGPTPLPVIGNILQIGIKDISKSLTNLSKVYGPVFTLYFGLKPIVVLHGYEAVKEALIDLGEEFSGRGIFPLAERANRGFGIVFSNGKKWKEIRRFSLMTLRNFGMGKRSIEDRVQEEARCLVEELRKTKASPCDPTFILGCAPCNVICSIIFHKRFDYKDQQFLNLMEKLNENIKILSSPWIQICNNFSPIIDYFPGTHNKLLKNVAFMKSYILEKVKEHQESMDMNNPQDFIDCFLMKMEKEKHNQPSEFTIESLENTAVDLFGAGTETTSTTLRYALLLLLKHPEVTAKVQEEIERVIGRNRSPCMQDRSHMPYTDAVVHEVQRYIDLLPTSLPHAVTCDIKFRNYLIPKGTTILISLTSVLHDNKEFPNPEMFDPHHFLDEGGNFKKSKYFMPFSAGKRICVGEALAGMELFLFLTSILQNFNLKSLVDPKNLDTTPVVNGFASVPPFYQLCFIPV

On to `COc1cc2ncnc(Oc3ccc(CC(=O)Nc4cnn(C(C)C)c4)cc3)c2cc1OC`, for which the values for the QH with Canis familiaris and in the data set with Rattus norvegicus were 9% and 6%, respectively. In addition, the values for the IC50 (on Cytochrome P450 2C9; in [13]) were 8 µM and 137 µM, respectively. Moreover, the inhibition in vivo at 12.5 mg/kg with Calu-6 [1] was found to be 72%. Besides, the hepatocyte CLint in data set [2] came to 3.5 µL/min/1e6 cells. Also, the Vd was 0.9 L/kg in [3] and 0.8 L/kg in data set [5]. For the same compound, the inhibition in vivo at 50 mg/kg in the data set with LoVo was 67%; in the data set with Calu-6 [14] it was 81%. The “inhibition (INH)” value with Mus musculus [4] and with Mus musculus [15] was 60% in each case. For the same compound, the TGI in the data set on C6 was determined as 64%. The half-life in [6] is 1.3 h; in data set [9], 6 h; in data set [12], 4.2 h; in [17] it was 6.8 h. Moreover, the bioavailability in data set [7] amounted to 34%; in [16], 23%. For the same compound, the clearance in data set [8] turned out to be 8.9 mL/min/kg; in data set [11], 3.3 mL/min/kg. In addition, the figures for the fraction unbound in data set [10] and in data set [18] were 0.07 and 0.033, respectively.

Take `COc1cc2ncnc(Oc3ccc(CC(=O)Nc4cnn(C(C)C)c4)cc3)c2cc1OC.O=P(O)(O)O`: the Vd in data set [19] worked out at 0.7 L/kg. This compound also gave a clearance in [20] of 1.7 mL/min/kg. Moreover, the bioavailability in data set [21] and in data set [25] was over 90% in each case. The half-life was 4.7 h in data set [22], 4.3 h in [23] and 6.8 h in data set [24]. In addition, in data set [26], the CL/F was 5.2 mL/min/kg.
